Measured values reported in patent publication US6110481A, “Controlled release device based on aqueous-organic partitioning in porous membranes” (Trustees of the Stevens Institute of Technology, priority 1994, dated 2000).

Tests used:
[1] = Distribution coefficient of benzoic acid between decanol and water; format: physicochemical
Excerpt: Analytical solutions for non-coated, wetted fibers and for non-coated, non-wetted fibers were developed to predict the aqueous phase benzoic acid concentration as a function of time for nylon fibers as well as Celgard® X-20 […] and 400 μm I.D. fibers, both wetted and non-wetted. Predicted results were compared with experimental data (for wetted fibers only) in FIGS. 1, 2 and 3 for Celgard® X-20 240 μm I.D., Celgard® X-20 400 μm I.D. and Nylon 6 600 μm I.D. fibers, respectively. The hollow fiber dimensions and membrane porosities were supplied by the manufacturer. In the case of the silicone coated fibers, the coating thickness was estimated experimentally. The diffusivity of benzoic acid in decanol was estimated using the Wilke-Chang Equation. The diffusivity of benzoic acid in water was taken from Reid et al., Properties of Gases and Liquids, McGraw Hill Book Co., New York, 1977. […]
Aqueous phase benzoic acid concentration was analyzed by a Hewlett-Packard HPLC model 1090, using a Hypersil ODS C-18 reverse phase column. […] The distribution coefficient of benzoic acid between decanol and water was determined experimentally.

[2] = In vitro release from microporous hollow fibers into stirred water bath; format: physicochemical; conditions: 1 μm silicone-coated 240 μm Celgard fibers (with and without wax coating), octanol; experimental vs predicted for uncoated fibers
Protocol: Hollow fibers prepared as such may then be assembled in any fashion intended for controlled release purposes. Preliminary testing of the release kinetics of a selected agent is carried out by immersing a length of the hollow fiber with sealed ends in a stirred water bath and measuring the concentration of the agent in the water bath as it increased with time.
A coating on the outer surface of the fiber provides additional resistance to mass transfer. […] The controlled release of benzoic acid using silicone-coatedhollow fibers (with and without an additional wax coating) and octanol is shown in FIGS. 4A and 4B. For both Figures, the predicted results are based on a 240 μm uncoated fiber with the same membrane thickness, porosity and tortuosity. In FIG. 4A, a 240 μm Celgard® fiber was coated with a 1 μm silicone coating. In FIG. 4B, a 240 μm Celgard® fiber was coated with a 1 μm silicone coating, and an additional wax coating. In both experiments, the solvent was octanol and the diffusing species, benzoic acid.
Aqueous phase benzoic acid concentration was analyzed by a Hewlett-Packard HPLC model 1090, using a Hypersil ODS C-18 reverse phase column. A 40% acetonitrile -60% water (w/w) carrier and UV detector at 254 nm were used. The samples were injected manually into a […] sample loop. […] The distribution coefficient of benzoic acid between decanol and water was determined experimentally. […]

[3] = from Reid et al., 1977, p. 576; cited from earlier work
[4] = glassy hydrogel matrix, solvent activation system; cited from earlier work

Row | SMILES | distribution coefficient (m), ratio of equilibrium solute concentration in organic solvent over that in water [1] | effect of fiber coating on time to approach steady state [2] | diffusion coefficient in water [3] | release kinetics [4]
1 | O=C(O)c1ccccc1 [benzoic acid] | ~50 | increases the time required for the system to approach steady state | 1.2 × 10^-5 cm^2 /s | zero order release kinetics
2 | Cn1c(=O)c2[nH]cnc2n(C)c1=O [theophylline] | – | – | – | zero order release kinetics
